The values that follow are results of earlier work, collected in patent publication EP2893919B1, “Formulation of aprepitant with enhanced solubility” (SANOFI, priority 2014, dated 2015).

The structures appear in SMILES notation.

For data set [1] the following is noted: pH range 2 to 10.

As to `C[C@@H](O[C@H]1OCCN(Cc2n[nH]c(=O)[nH]2)[C@H]1c1ccc(F)cc1)c1cc(C(F)(F)F)cc(C(F)(F)F)c1` [Aprepitant, 5-([(2R,3S)-2-((R)-1-[3,5-bis(trifluoromethyl)phenyl]ethoxy)-3-(4-fluorophenyl)morpholino]methyl)-1H-1,2,4-triazol-3(2H)-one], in data set [1], the solubility in water is below 10 µg/mL. The Caco-2 permeability in the data set on Caco-2 was 7.85 ×10⁻⁶ cm/s.
